Results as given in patent publication US11225481B2 (Centre national de la recherche scientifique, priority 2015, dated 2022).
Several values for one entry are separate records, joined by “and”; a condition that tells them apart may be missing. Identical values can stand only once.

Each compound was assayed against T1, BRD4(BD1) (Homo sapiens, UniProt O60885) (assay: HTRF assay, disruption of bromodomain/histone peptide interaction). Conditions: HTRF; Table 1′, TABLE 2; read-out: BRD4(BD1) IC50.
T1 construct: a BRD4(BD1) synthetic gene that includes a TEV cleavage site was purchased from LifeTechnology; made in house
Type: binding
Procedure: HTRF assays were performed in white 384 Well Small Volume™ HiBase Polystyrene Microplates (Greiner) with a total working volume of 20 μL. Compounds were dispensed, with 200 nL per well (1% final DMSO), from a concentration stock of 1 mM in 100% DMSO and with serial DMSO dilutions, using a Mosquito Crystal pipetting robot platform (TTP labtech). The IC50 measurements were performed in triplicates (Table 2 and 3). All HTRF reagents were purchased from CisBio Bioassays and reconstituted according to the supplier protocols. For each assay 14.7 μL of mix 1 (protein+peptide) is added in the assay wells, containing previously dispensed inhibitors, according to the final concentration and buffer described in Table 4, using a Biomek NX MC pipetting robot (Beckman). Then, 5.1 μL of mix 2 (donnor+acceptor) is added. HTRF signals were measured, after a final incubation (overnight at room temperature), using a PHERAstar FS (BMG Labtech) with an excitation filter at 337 nm and fluorescence wavelength measurement at 620 and 665 nm, an integration delay of 60 μs and an integration time of 500 μs. Results were analyzed with a two-wavelengths signal ratio: [intensity (665 nm)/intensity (620 nm)]*10^4. Percentage of inhibition was calculated using the following equation: % inhibition=[(compound signal)−(min signal)]/[(max signal)−(min signal)]*100, where ‘max signal’ is the signal ratio with the compound vehicle alone (DMSO) and ‘min signal’ the signal ratio without peptide.
For Isothermal Titration Calorimetry (ITC) and crystallogenesis, BRD4(BD1) was produced and purified using a histidine tag affinity chromatography as described by Filipakopoulos et al.9 For these experiments, a pNIC28-BSA4 expression vector containing BRD4(BD1) and a Tobacco Etch Virus (TEV) protease cleavage site have kindly been provided by Stefan Knapp laboratory from the SGC at the University of Oxford. After size exclusion chromatography, the fractions presenting pure BRD4(BD1) after TEV cleavage of the histidine tag were pooled and concentrated to 25 mg/mL for crystallogenesis. For ITC assays, the protein was concentrated up to at 6 mg/mL and the DTT was removed using a buffer exchange column (PD10 from GE healthcare) equilibrated with 10 mM HEPES pH=7.5, 150 mM NaCl. For Homogeneous Time Resolved Fluorimetry (HTRF) experiments, a BRD4(BD1) synthetic gene that includes a TEV cleavage site was purchased from LifeTechnology in a pDONR transport vector before cloning into a pDESTTM15 expression vector for GST affinity purification. Protein production and purification was carried out using similar protocols and buffers as used for the His-BRD4(BD1) system. Purification was carried on GST affinity resin (Thermo Scientific) and reduced glutathione was used for protein release. GST-BRD4(BD1) was further purified by size exclusion chromatography on a Superdex 16/60 Hiload column (GE Healthcare) using 20 mM TRIS pH=8.0, 150 mM NaCl Buffer.

CCCCc1c(C)nc2nc(SCc3nc4c(c(=O)[nH]c(=O)n4Cc4ccc(Cl)cc4)n3CC)nn2c1C [Compound 27b, 8-(6-Butyl-5,7-dimethyl-[1,2,4]triazolo[1,5-a]pyrimidin-2-ylsulfanylmethyl)-3-(4-chlorobenzyl)-7-ethyl-3,7-dihydro-purine-2,6-dione] was tested, and the IC50 was 20 µM and 20.4 µM.

Same assay, conditions: HTRF; mean ± SD of three experiments; Table 2; read-out: IC50 μM, effect on BRD4(BD1) activity

CCCCc1c(C)nc2nc(SCc3nc4c(c(=O)[nH]c(=O)n4Cc4ccc(Cl)cc4)n3CC)nn2c1C [Compound 27b, 8-(6-Butyl-5,7-dimethyl-[1,2,4]triazolo[1,5-a]pyrimidin-2-ylsulfanylmethyl)-3-(4-chlorobenzyl)-7-ethyl-3,7-dihydro-purine-2,6-dione] gave an IC50 of 20.4 µM.

Same assay, conditions: LE = 1.4(−log(IC50)/N), BRD4(BD1)

In the case of CCCCc1c(C)nc2nc(SCc3nc4c(c(=O)[nH]c(=O)n4Cc4ccc(Cl)cc4)n3CC)nn2c1C [Compound 27b, 8-(6-Butyl-5,7-dimethyl-[1,2,4]triazolo[1,5-a]pyrimidin-2-ylsulfanylmethyl)-3-(4-chlorobenzyl)-7-ethyl-3,7-dihydro-purine-2,6-dione], the “LE (Ligand Efficiency)” value is reported as 0.15.

Same assay, conditions: Table 3 selectivity profile; mean ± SD of three experiments; read-out: IC50 (μM) BRD4(BD1)

Work on CCCCc1c(C)nc2nc(SCc3nc4c(c(=O)[nH]c(=O)n4Cc4ccc(Cl)cc4)n3CC)nn2c1C [Compound 27b, 8-(6-Butyl-5,7-dimethyl-[1,2,4]triazolo[1,5-a]pyrimidin-2-ylsulfanylmethyl)-3-(4-chlorobenzyl)-7-ethyl-3,7-dihydro-purine-2,6-dione] yielded an IC50 of 20.4 ± 3.6 µM.

What follows are compounds tested against T1, BRD4(BD1) (assay: HTRF assay on robot-synthesised focused library (Example 4 bis)). Conditions: Table 2 bis; focused library without intermediary purification; read-out: HTRF (IC50, μM), effect on BRD4(BD1) activity.
Type: binding
Procedure: (§1) The Accelerator Synthetizer SLT100 allows the efficient synthesis of the focused library in 96 well plates that can be directly transferred to a Labcyte Access/Echo® Laboratory Workstation to assess the compounds for their ability to disrupt bromodmain/histone complexes using the homogeneous time-resolved fluorescence (HTRF®) technology (IC50 μM).
as §1, with “After” for “The Accelerator Synthetizer SLT100 allows”, “with the Accelerator Synthetizer SLT100, the focused library has been” for “that can be”, “μM, table 2bis).” for “μM).”

Point of comparison: CCCCn1c(=O)[nH]c(=O)c2c1nc(CSc1nc3nc(C)c(CC(=O)O)c(C)n3n1)n2CC [Compound 34], IC50 44.5 µM. Against it:
- CCCCn1c(=O)[nH]c(=O)c2c1nc(COc1ccc(C3CNCC3C(=O)O)cc1)n2CC (stereo not drawn) [Compound 45] — 3.8-fold lower, 11.6 µM
- CCCCn1c(=O)[nH]c(=O)c2c1nc(COc1ccc(Nc3nc4ccccc4c(=O)[nH]3)cc1)n2CC [Compound 52] — within 1.5-fold, 33 µM
- CCCCn1c(=O)[nH]c(=O)c2c1nc(CSc1nnc(-c3ccccc3)c(-c3ccccc3)n1)n2CC [Compound 46] — 2.2-fold lower, 20.1 µM
- CCCCNS(=O)(=O)c1ccc2nc(SCc3nc4c(c(=O)[nH]c(=O)n4Cc4ccc(Cl)cc4)n3CC)[nH]c2c1 [Compound 67] — 5-fold lower, 8.9 µM
- CCn1c(COc2nc3cc(C(=O)O)ccc3[nH]2)nc2c1c(=O)[nH]c(=O)n2Cc1ccc(Cl)cc1 [Compound 68] — within 1.5-fold, 35.5 µM
- CCc1c(C(=O)O)cnn1-c1ccc(OCc2nc3c(c(=O)[nH]c(=O)n3Cc3ccc(Cl)cc3)n2CC)nn1 [Compound 70] — 6.8-fold lower, 6.5 µM
- CCCCn1c(=O)[nH]c(=O)c2c1nc(CSc1nc3cc(C(=O)OC)ccc3o1)n2CC [Compound 38] — within 1.5-fold, 48.2 µM
- CCCCn1c(=O)[nH]c(=O)c2c1nc(CSc1nc(O)c3c(C)cc(C)nc3n1)n2CC [Compound 53] — 10-fold lower, 4.4 µM
- CCn1c(COc2ccc(-n3[nH]c(C(=O)O)cc3=O)nn2)nc2c1c(=O)[nH]c(=O)n2Cc1ccc(Cl)cc1 [Compound 69] — 5.3-fold lower, 8.4 µM
- CCCCn1c(=O)[nH]c(=O)c2c1nc(COc1nc3cc(C(=O)O)ccc3[nH]1)n2CC [Compound 42] — within 1.5-fold, 45.3 µM
- CCn1c(CSc2nc3cc(S(=O)(=O)N4CCCCC4)ccc3o2)nc2c1c(=O)[nH]c(=O)n2Cc1ccc(Cl)cc1 [Compound 58] — 16-fold lower, 2.7 µM
- CCOC(=O)c1ccc2c(c1)nc(SCc1nc3c(c(=O)[nH]c(=O)n3Cc3ccc(Cl)cc3)n1CC)n2CC [Compound 66] — 2.6-fold lower, 16.8 µM
- CCn1c(CSc2nc3cc(C(=O)OC)ccc3o2)nc2c1c(=O)[nH]c(=O)n2Cc1ccc(Cl)cc1 [Compound 63] — 5-fold lower, 8.9 µM
- CCn1c(CSc2nnc(Cc3cc(C)nn3C)n2CC2CCCO2)nc2c1c(=O)[nH]c(=O)n2Cc1ccc(Cl)cc1 (stereo not drawn) [Compound 74] — 8.1-fold lower, 5.5 µM
- CCCCn1c(=O)[nH]c(=O)c2c1nc(COc1ccc(-n3ncc(C(=O)O)c3CC)nn1)n2CC [Compound 44] — 2-fold lower, 21.9 µM
- CCCCn1c(=O)[nH]c(=O)c2c1nc(COc1ccc(-n3[nH]c(C(=O)O)cc3=O)nn1)n2CC [Compound 43] — within 1.5-fold, 33.4 µM
- CCCCn1c(=O)[nH]c(=O)c2c1nc(CSc1nc3nc(C)c(CCC(=O)O)c(C)n3n1)n2CC [Compound 33] — 5.2-fold lower, 8.5 µM
- CCn1c(CSc2nc3cc(S(=O)(=O)N(C)C)ccc3o2)nc2c1c(=O)[nH]c(=O)n2Cc1ccc(Cl)cc1 [Compound 61] — 9.5-fold lower, 4.7 µM
- CCCCn1c(=O)[nH]c(=O)c2c1nc(CSc1nc3cc(S(=O)(=O)N4CCOCC4)ccc3[nH]1)n2CC [Compound 39] — within 1.5-fold, 38.2 µM
- CCCCn1c(=O)[nH]c(=O)c2c1nc(COc1ccc3c(=O)c(Oc4ccccc4)coc3c1)n2CC [Compound 47] — within 1.5-fold, 30.1 µM
- CCn1c(COc2cccc(C(=O)NCc3ccccc3)c2)nc2c1c(=O)[nH]c(=O)n2Cc1ccc(Cl)cc1 [Compound 75] — 11-fold lower, 3.9 µM
- CCn1c(CSc2nc3nc(C)c(CCC(=O)O)c(C)n3n2)nc2c1c(=O)[nH]c(=O)n2Cc1ccc(Cl)cc1 [Compound 55] — 3.1-fold lower, 14.2 µM
- CCn1c(CSc2nc3ncccn3n2)nc2c1c(=O)[nH]c(=O)n2Cc1ccc(Cl)cc1 [Compound 80] — 4.2-fold lower, 10.6 µM
- CCCCn1c(=O)[nH]c(=O)c2c1nc(COc1ccc3c(=O)c(-c4ccccc4)coc3c1)n2CC [Compound 48] — within 1.5-fold, 35.2 µM
- CCn1c(COc2ccc(Nc3nc4ccccc4c(=O)[nH]3)cc2)nc2c1c(=O)[nH]c(=O)n2Cc1ccc(Cl)cc1 [Compound 76] — 3.5-fold lower, 12.7 µM
- CCn1c(CSc2nc3ccc(C(=O)O)cc3[nH]2)nc2c1c(=O)[nH]c(=O)n2Cc1ccc(Cl)cc1 [Compound 64] — 8.7-fold lower, 5.1 µM
- CCn1c(CSc2nc3cc(S(=O)(=O)N4CCOCC4)ccc3o2)nc2c1c(=O)[nH]c(=O)n2Cc1ccc(Cl)cc1 [Compound 62] — 5-fold lower, 8.9 µM
- CCn1c(CSc2nc3cc(C(=O)O)ccc3o2)nc2c1c(=O)[nH]c(=O)n2Cc1ccc(Cl)cc1 [Compound 57] — 5.9-fold lower, 7.5 µM
- CCn1c(CSc2nc3cc(S(=O)(=O)N4CCOCC4)ccc3[nH]2)nc2c1c(=O)[nH]c(=O)n2Cc1ccc(Cl)cc1 [Compound 65] — within 1.5-fold, 32.7 µM
- CCCCn1c(=O)[nH]c(=O)c2c1nc(CSc1nc3ccc([NH2+][O-])cc3[nH]1)n2CC [Compound 40] — within 1.5-fold, 33 µM
- CCCCn1c(=O)[nH]c(=O)c2c1nc(CSc1nc3cc(C(=O)O)ccc3o1)n2CC [Compound 36] — 15-fold lower, 3 µM
- CCCCn1c(=O)[nH]c(=O)c2c1nc(CSc1nc3ccc(C(=O)O)cc3o1)n2CC [Compound 35] — 2.3-fold lower, 19.2 µM
- CCn1c(COc2nnc(-c3ccccc3)c(-c3ccccc3)n2)nc2c1c(=O)[nH]c(=O)n2Cc1ccc(Cl)cc1 [Compound 71] — 2.5-fold lower, 17.8 µM
- CCCCn1c(=O)[nH]c(=O)c2c1nc(COc1cn3cc(C(=O)O)ccc3n1)n2CC [Compound 49] — within 1.5-fold, 35.1 µM
- CCCCn1c(=O)[nH]c(=O)c2c1nc(CSc1nc3cc(S(=O)(=O)CC)ccc3o1)n2CC [Compound 37] — 2.7-fold lower, 16.6 µM
- CCCCn1c(=O)[nH]c(=O)c2c1nc(CSc1nc3cc(C(=O)OCC)ccc3n1CC)n2CC [Compound 41] — 7-fold lower, 6.4 µM
- CCn1c(CSc2nc3nc(C)c(Br)cc3[nH]2)nc2c1c(=O)[nH]c(=O)n2Cc1ccc(Cl)cc1 [Compound 79] — 11-fold lower, 4.2 µM
- CCn1c(CSc2nc3cc([N+](=O)[O-])ccc3o2)nc2c1c(=O)[nH]c(=O)n2Cc1ccc(Cl)cc1 [Compound 60] — 5.3-fold lower, 8.4 µM
- CCn1c(CSc2nc3cc(S(=O)(=O)CC)ccc3o2)nc2c1c(=O)[nH]c(=O)n2Cc1ccc(Cl)cc1 [Compound 59] — 6.4-fold lower, 6.9 µM

What follows are compounds tested on BET bromodomains (assay: Selectivity profile across BET bromodomains (HTRF)). Conditions: in words.
Type: binding
Procedure: Selectivity profiles of bromodomain inhibitors were performed as described in HTRF screen section. […] HTRF detection reagents (EPIgeneous™ Binding Domain kits) were purchased from Cisbio Bioassays and used according to supplier's protocol. GST tagged bromodomain proteins were purchased from BPS Bioscience and histone peptide from Anaspec.

In the case of CCCCc1c(C)nc2nc(SCc3nc4c(c(=O)[nH]c(=O)n4Cc4ccc(Cl)cc4)n3CC)nn2c1C [Compound 27b, 8-(6-Butyl-5,7-dimethyl-[1,2,4]triazolo[1,5-a]pyrimidin-2-ylsulfanylmethyl)-3-(4-chlorobenzyl)-7-ethyl-3,7-dihydro-purine-2,6-dione], the “selectivity profile among BET bromodomains” value is reported as “selective towards BRD4(BD1)”.
